Where two headings read alike, the source gives them in different places.
Key:
rat adjuvant arthritis = settings: Pierce J W, et al. (1997) J. Biol. Chem. 272, 21096-21103; cited from earlier work
NF-κB = NF-κB luciferase reporter assay in A549/NF-κBLuc cells; format: cell-based, human; settings: Homo sapiens, A549/NF-κBLuc, luciferase activity
Experimental: Using lipofectamine (Lifetech Oriental K. K., Tokyo) according to the conventional method, human lung cancer cell line A549 cells (ATCC catalog no. CCL185), which are known to express hiNOS by cytokine stimulation, were co-transfected with pNFκB-Luc, which are plasmid controlled by a NF-κB binding consensus sequence, and pSV2neo (Clontech, U.S.A.), and then A549/NF-κBLuc, the cell that has stably introduced pNFκB-Luc, was selected by adding G418 sulfate (1 mg/ml, Lifetech Oriental K. K.) to the culture medium.
The luciferase activity was measured using the Luciferase Assay System (Promega, U.S.A.).

[1] = tested on: EMC virus-inoculated DBA/2 mice (viral myocarditis); experiment: Survival rate in murine viral myocarditis model; format: in vivo, mouse; settings: 10% DMSO, Kaplan-Meier p<0.05, FIG. 3
Experimental: Viral myocarditis mice were prepared using the procedure described below in accordance with a known method (Shioi T. et al. (1997) J. Mol. Cell. Cardiol., 29, 2327-2334). Variant M (acquired from the American Type Culture Collection) was used for the EMC virus for inoculation and prepared to 100 pfu/ml in Eagle's MEM medium (Nissui Pharmaceutical). Four-week-old DBA/2 male mice were divided into two groups, and intraperitoneally inoculated with EMC virus at 10 pfu/animal. Test compound was then administered intraperitoneally and daily for 14 days under the following conditions to each group starting 3 hours after inoculation.
The test compound was used after dissolving in 0.5% aqueous gum arabic solution (3 mg/ml). In the present example, the compound of Production Example 4 was used in the test as the NF-κB inhibitor.
Test group (n=10): Administration of NF-κB inhibitor (Production Example 4) at 30 mg/kg body weight Control group (n=10): 0.5% aqueous gum arabic solution
The experiment was conducted in the following three groups using the same method as Example 2 and the compound of Production Example 7 for the NF-κB inhibitor. The test compound was used after dissolving in 10% aqueous dimethylsulfoxide solution (DMSO) (test group 1: 0.3 mg/ml, test group 2: 3 mg/ml). The survival rates were tested for the presence of a significant difference according to the Kaplan-Meier method, and statistical significance was defined as p<0.05.
Test group 1 (n=21): Administration of NF-κB inhibitor (Production Example 7) at 3 mg/kg body weight
Test group 2 (n=21): Administration of NF-κB inhibitor (Production Example 7) at 30 mg/kg body weight
Four-week-old DBA/2 male mice were inoculated with EMC virus using the same method as Example 2, and the test compound was administered orally and daily for 14 days under the following conditions to each group starting 2 hours after inoculation.
The test compound was used after dissolving in 10% aqueous sulfobutylcyclodextrin solution (3 mg/ml). In the present example, the compound of Production Example 44 was used in the test as the NF-κB inhibitor.
Test group (n=20): Administration of NF-κB inhibitor (Production Example 44) at 30 mg/kg body weight

[2] = tested on: EMC virus-inoculated DBA/2 mice (viral myocarditis); experiment: Histopathology of heart (cardiac necrosis, cellular infiltration) in murine myocarditis model; format: in vivo, mouse; settings: 30 mg/kg, hearts on days 7 and 8, score 0-4, vs control group; FIG. 5
Experimental: NF-κB inhibitor (compound of Production Example 7) was administered at 30 mg/kg body weight using the similar method as Example 3 to the mouse myocarditis model prepared in the similar manner as Example 2. The whole hearts of those mice alive on days 7 and 8 (n=10) were extripated, exsanguinated and washed with phosphate-buffered saline. Subsequently, paraffin embedded and sectioned specimens were prepared by fixing the tissue with 10% formalin. The specimens were stained with hematoxylin-eosin stain followed by examination of histopathological findings.
In cross-sectional images taken along the minor axis of the left ventricle under light microscopy, the percentage of cardiac necrosis features or cellular infiltration was classified into 0 (no damage), 1 (less than 25%), 2 (25% to less than 50%), 3 (50% to less than 75%) and 4 (75% or more), and respectively observed by two observers. The evaluations of the two observers were averaged to obtain a single evaluation. The results obtained were tested for the presence of a significant difference by analysis of variance (ANOVA) according to Bonferroni's multiple comparison method, and statistical significance was defined as p<0.05.
Test group (n=10): Administration of NF-κB inhibitor (Production Example 7) at 30 mg/kg body weight

TNF-α = TNF-α mRNA level in heart by TaqMan PCR, murine myocarditis model; format: in vivo, mouse; settings: 30 mg/kg intraperitoneally daily for 5 days, heart day 5, corrected with GAPDH, vs infected control; FIG. 6
Experimental: (§1) Four-week-old DBA/2 male mice were inoculated with EMC virus in the same manner as Example 3 followed by intraperitoneal administration of the compound of Production Example 7 dissolved in 10% DMSO or 10% DMSO only daily for 5 days starting 2 hours after inoculation. The whole hearts were excised from mice of the Production Example 7 compound group, 10% DMSO group and non-infected group on day 5 of viral infection, and after extracting RNA using ISOGEN (Wako Pure Chemical Industries), cDNA was obtained in accordance with the procedure of the SuperScript Preamplification System (Lifetech Oriental). The mRNA levels of TNF-α, IL-1β and iNOS were assayed by TaqMan PCR using this cDNA as templates. Detection was performed using the PRISM7700 (PE Biosystems Japan) in accordance with the protocol of the PCR assay system (PE Biosystems Japan). The following primers and TaqMan probes were used for detection.
(§2) The amount of RNA of each sample was corrected with the amount of glyceraldehyde-3-phosphate dehydrogenase (GAPDH) gene.
(§3) Infected group (administered compound of Production Example 7) (n=10) Administration of NF-κB inhibitor (Production Example 7) at 30 mg/kg body weight

IL-1β = IL-1β mRNA level in heart by TaqMan PCR, murine myocarditis model; format: in vivo, mouse; settings: 30 mg/kg intraperitoneally daily for 5 days, heart day 5, corrected with GAPDH, vs infected control; FIG. 6
Experimental: as §1, §2, §3

iNOS = iNOS mRNA level in heart by TaqMan PCR, murine myocarditis model; format: in vivo, mouse; settings: 30 mg/kg intraperitoneally daily for 5 days, heart day 5, corrected with GAPDH, vs infected control; FIG. 6
Experimental: as §1, §2, §3

In the case of `CC(C)(C)c1ccc(S(=O)(=O)/C=C/C#N)cc1` [BAY11-7083], the “effect in rat adjuvant arthritis” value (rat adjuvant arthritis) is listed as “exhibit an effect”.
In the case of `COC1=C(OC)C(=O)C(Cc2ccc(CCC(=O)N3CCCCC3)cc2)=C(C)C1=O` [Prod. Ex. 7], the IC50 (NF-κB; IL-1β (1 ng/ml) for 4 hours, read-out: IC50 (μM) IL-1 stimulation) is reported as 4 µM, the IC50 (NF-κB; TNF-α (500 ng/ml) for 4 hours, read-out: IC50 (μM) TNF stimulation) is reported as 10 µM and the survival rate ([1]; 3 mg/kg intraperitoneally daily for 14 days) is reported as “significantly improve survival rate”. For the same compound, the survival rate ([1]; 30 mg/kg intraperitoneally daily for 14 days) was “significantly improve survival rate”, the cardiac necrosis [2] was “significantly inhibited” and the cellular infiltration [2] was “significantly inhibited”. For the same compound, the “expression of TNF-α at the mRNA level” value (TNF-α) was “significantly inhibited”, the “expression of IL-1β at the mRNA level” value (IL-1β) was “significantly inhibited” and the “expression of iNOS at the mRNA level” value (iNOS) was “significantly inhibited”.
